Read-outs that look alike come from different tables or passages of the source.
Columns and labels:
[1] = target: T1, full length human IRAK4 protein (Homo sapiens, UniProt Q9NWZ3); assay: IRAK4 biochemical assay (Promega ADP-Glo IRAK4 Kinase Enzyme System); settings: 3 nM enzyme, 2 μM MBP, 250 μM ATP, 60 min at room temperature
T1 construct: Purified full length human IRAK4 protein; purchased Signal Chem 1112-10G-125
T1 sequence (Q9NWZ3 1-460): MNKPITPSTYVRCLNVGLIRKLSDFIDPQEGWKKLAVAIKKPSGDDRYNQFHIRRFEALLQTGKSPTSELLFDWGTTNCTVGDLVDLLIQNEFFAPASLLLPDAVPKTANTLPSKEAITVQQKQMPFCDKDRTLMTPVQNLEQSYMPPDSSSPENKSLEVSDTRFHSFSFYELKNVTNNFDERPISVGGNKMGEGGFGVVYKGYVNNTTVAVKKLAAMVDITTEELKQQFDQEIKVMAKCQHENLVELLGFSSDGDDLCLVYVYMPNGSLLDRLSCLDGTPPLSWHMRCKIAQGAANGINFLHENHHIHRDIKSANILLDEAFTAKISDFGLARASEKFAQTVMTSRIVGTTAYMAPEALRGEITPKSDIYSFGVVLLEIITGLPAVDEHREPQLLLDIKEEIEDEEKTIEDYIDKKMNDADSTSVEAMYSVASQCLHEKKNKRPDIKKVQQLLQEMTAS
Method: For the routine compound screening, an IRAK4 kinase assay was performed as follows using Promega ADP-Glo IRAK4 Kinase Enzyme System (Promega, Cat #2198-AD). Purified full length human IRAK4 protein (Signal Chem; Cat #1112-10G-125) was diluted to a concentration 6 nM in assay buffer (25 mM MOPS, pH 7.2, 12.5 mM β-glycerol-phosphate, 25 mM MgCl2, 5 mM EGTA, 2 mM EDTA, 0.0025% Brij-35, add 0.25 mM DTT to Kinase Assay Buffer prior to use) containing IRAK4 inhibitor at 2× the final concentration in 0.4% DMSO. The reaction was performed in PerkinElmer Proxiplate-384 plus white plate (Fisher Scientific, Cat #50-905-2761) and started by the addition of an equal volume of the assay buffer containing 4 μM native swine myelin basic protein (MBP) and 500 μM ATP to achieve a final concentration of 3 nM enzyme, 2 μM MBP, 250 μM ATP, 1×compound, and 0.2% DMSO. The kinase reaction was allowed to run for 60 min at room temperature (25-27° C.), then 5 μL of ADP-Glo was added to the reaction in each well followed by 40 minutes-incubation at RT. To detect converted ATP, 10 μL Detection Buffer was added into each well and Incubate at RT in dark for 30 minutes. Finally, luminescence was read using Tecan with 1000 ms of integration time. The luminescent signal positively correlates with ADP amount and kinase activity. Data was analyzed by GraphPad Prism and IC50 was calculated using function log(inhibitor) vs. response—Variable slope (four parameters). Percentage of inhibition was calculated as below:
% inhibition=(1−(Reading(Sample)−Reading(Negative Control))/(Reading(Positive Control)−Reading(Negative Control)))×100%
The 0% inhibition value comes from the Reading of Positive Control wells having 0 nM compound. The 100% inhibition value comes from the Reading of Negative Control wells having no IRAK4 kinase.

[2] = tested on: IRAK4 (TNFα in human peripheral blood mononuclear cells); assay: IRAK4 human PBMC TNFα cell based assay (AlphaLISA); settings: TNFα readout
Method: In this assay, serially diluted compounds were incubated with 1×10^4 human peripheral blood mononuclear cells (PBMCs) from STEMCELL (Cat #70025.1) per well of 384-well plate (Fisher Scientific; 50-905-2761) and cultured with TexMACS medium (Miltenyi, Cat #130-097-196), stimulated by R848 (0.5 μM) or IL-1β (10 ng/ml). Plates were covered with lids and incubated for 4 h (R848, Fisher Scientific, Cat #NC9801605) or 24 h (IL-1β, Fisher Scientific, Cat #ENRIL1BI) at 37° C. in a humidified tissue-culture incubator. After a brief centrifugation at 1000 rpm for 5 minutes, 5 μl of culture medium was used for the measurement of the TNFα amount using TNFα (human) AlphaLISA Detection Kit (PerkinElmer, Cat #AL208C) according to manufacturer's protocol. A biotinylated anti-TNFα antibody binds to the Streptavidin-coated Donor beads while another anti-TNFα antibody is conjugated to AlphaLISA Acceptor beads. In the presence of the TNFα, the beads come into close proximity. The excitation of the Donor beads causes the release of singlet oxygen molecules that triggers a cascade of energy transfer in the Acceptor beads, resulting in a sharp peak of light emission at 615 nm. AlphaLISA assay plates were read using PHERAstar. Percentage of inhibition was calculated as below:
% inhibition=(1−(Reading(Sample)−Reading(Negative Control))/(Reading(Positive Control)−Reading(Negative Control)))×100% […]

`COc1cc2c(OC[C@@H]3CCC(=O)N3)nsc2cc1C(N)=O` [Example 1, (S)-5-methoxy-3-((5-oxopyrrolidin-2-yl)methoxy)benzo[d]isothiazole-6-carboxamide] was tested, and the IC50 [1] was 240 nM and the “IRAK4 Biochemical Assay Max Inhibition (%)” value [1] was 98.0%.

`CC[C@@H]1[C@H](F)C(=O)N[C@@H]1COc1nsc2cc(C(N)=O)c(OC)cc12` [Example 2] was tested, and the IC50 ([2]; human PBMCs stimulated by IL-1β (10 ng/ml), 24 h, read-out: IRAK4 PBMC AlphaLISA IL-1β (IC50)) was 26 nM, the IC50 ([2]; human PBMCs stimulated by R848 (0.5 μM), 4 h, read-out: IRAK4 PBMC AlphaLISA R848 (IC50)) was 21 nM and the IC50 [1] was 14 nM. The “IRAK4 Biochemical Assay Max Inhibition (%)” value [1] was 93.0%.

Source: patent US20220213086A1, “AZOLE COMPOUNDS AS IRAK INHIBITORS, PREPARATION METHODS AND MEDICINAL USES THEREOF” (Eternity Bioscience Inc., priority 2020, published 2022)
